Experimental data from ChEMBL document CHEMBL1157380, “Aplysamine 6, an alkaloidal inhibitor of Isoprenylcysteine carboxyl methyltransferase from the sponge Pseudoceratina sp” (J Nat Prod, 2008).
pIC50: −log10 of the molar value. The source made the active and inactive calls. No cut-off for these calls is given here.

Tests used:
[1] = biological target: T1, Protein-S-isoprenylcysteine O-methyltransferase (Homo sapiens, UniProt O60725); test: Inhibition of Icmt using [3H]SAM as substrate
[2] = biological target: T1, Protein-S-isoprenylcysteine O-methyltransferase; test: Inhibition of Icmt up to 100 uM after 60 mins using [3H]biotin as substrate by artifact assay

T1 sequence (O60725 whole entry): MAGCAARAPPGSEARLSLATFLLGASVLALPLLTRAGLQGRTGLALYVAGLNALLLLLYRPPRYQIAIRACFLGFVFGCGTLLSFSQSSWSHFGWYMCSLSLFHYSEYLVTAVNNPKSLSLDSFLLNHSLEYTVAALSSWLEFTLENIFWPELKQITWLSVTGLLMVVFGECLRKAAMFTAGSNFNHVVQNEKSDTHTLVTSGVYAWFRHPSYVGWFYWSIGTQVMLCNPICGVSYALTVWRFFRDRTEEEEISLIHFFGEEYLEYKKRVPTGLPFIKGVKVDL

pIC50 [1]: 4.85 | Activity [2]: inactive
SMILES: COc1ccc(/C=C/C(=O)NCCc2cc(Br)c(OCCCN)c(Br)c2)cc1Br [APLYSAMINE 6]
